The source of these data is patent US10723701B2, “Quinolyl-substituted carboxylic acid compound or pharmaceutically acceptable salt thereof, pharmaceutical composition of the same, and use of the same” (BEIJING KONRUNS PHARMACEUTICAL CO., LTD., priority 2016, dated 2020).

One assay addresses T1, AXL (Homo sapiens, UniProt P30530).
T1 construct: purchased ProQinase GmbH
T1 sequence (P30530 26-894): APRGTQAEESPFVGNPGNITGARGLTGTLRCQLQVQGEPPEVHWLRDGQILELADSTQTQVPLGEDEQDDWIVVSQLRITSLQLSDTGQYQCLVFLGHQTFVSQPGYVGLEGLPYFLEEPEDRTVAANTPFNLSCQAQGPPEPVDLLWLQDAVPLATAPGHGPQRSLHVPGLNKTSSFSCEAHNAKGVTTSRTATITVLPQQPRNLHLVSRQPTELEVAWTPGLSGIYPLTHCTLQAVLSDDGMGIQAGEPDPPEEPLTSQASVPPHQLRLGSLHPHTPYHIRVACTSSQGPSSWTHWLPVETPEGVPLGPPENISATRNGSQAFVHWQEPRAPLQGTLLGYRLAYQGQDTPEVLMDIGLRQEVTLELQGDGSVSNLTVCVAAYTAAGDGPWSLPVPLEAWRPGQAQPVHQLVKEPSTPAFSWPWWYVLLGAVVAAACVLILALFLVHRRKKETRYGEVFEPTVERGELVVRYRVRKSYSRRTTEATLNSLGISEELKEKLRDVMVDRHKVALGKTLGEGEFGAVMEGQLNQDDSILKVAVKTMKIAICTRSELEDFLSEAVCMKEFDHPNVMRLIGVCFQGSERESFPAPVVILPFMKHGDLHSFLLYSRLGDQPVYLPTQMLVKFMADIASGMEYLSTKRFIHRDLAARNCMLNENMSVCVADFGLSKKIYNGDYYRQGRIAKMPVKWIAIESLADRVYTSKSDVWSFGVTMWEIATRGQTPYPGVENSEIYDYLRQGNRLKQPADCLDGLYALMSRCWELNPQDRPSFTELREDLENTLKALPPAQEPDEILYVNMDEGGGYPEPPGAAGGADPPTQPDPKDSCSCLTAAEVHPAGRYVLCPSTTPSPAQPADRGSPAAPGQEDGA
Kind of assay: Radioactive protein kinase assay (33PanQinase Activity Assay), AXL. Particulars: ATP 0.3 μM (Km), substrate Poly(Glu, Tyr) 4:1, 30° C., 60 minutes; read-out: Biochemical IC50 (nM) AXL. The procedure: (§1) Biochemical inhibitory activity against AXL and VEGFR2 kinases: the biochemical IC50 values of the compound according to the present application for inhibiting AXL and VEGFR2 kinases were measured by ProQinase GmbH Company (Breisacher Str. 117, D-79106 Freiburg, Germany, www.proqinase.com). The specific steps are described as follows:
(§2) Firstly, the compound according to the present application was dissolved in dimethyl sulfoxide (DMSO) to prepare a stock solution of 1×10^−3 M. 10 different concentrations (from […] to 3×10^−10 M) were prepared by the serial semi-logarithmic dilution.
(§3) The biochemical activities of AXL and VEGFR2 were determined by the radioactive protein kinase assay (33PanQinase® Activity Assay). The assay was performed using a FlashPlates™ 96-well plate manufactured by Perkin Elmer (Boston, Mass., USA) with a reaction volume of 50 μL. The reaction mixture was added by a dropper in the following four steps:
(§4) (1) 20 μL of buffer solution (standard buffer);
(§5) (2) 5 μL of an aqueous solution of ATP;
(§6) (3) 5 μL of the compound (10% DMSO solution);
(§7) (4) 10 μL of a substrate/10 μL of a solution of the kinase.
(§8) The solution to be measured contains HEPES-NaOH (70 mM, pH=7.5), MgCl2 (3 mM), MnCl2 (3 mM), Na-orthovanadate (3 μM), DTT (1.2 mM), PEG20000 (50 μg/mL), ATP (in a concentration that is same as Km of the kinase and varies depending on different kinases), [γ-^33P]-ATP (about 4×10^5 cpm/well), kinase and substrate.
(§9) The reaction was carried out at 30° C. for 60 minutes, and 50 μL of 2% (v/v) phosphoric acid was added to terminate the reaction. The reaction mixture in each well was aspirated and washed twice with 200 μL of 0.9% (w/v) NaCl solution. The amount of the incorporation of ^33P was determined by using a microplate scintillation counter.

The target in the next assay is T2, VEGFR2 (Homo sapiens, UniProt P35968).
T2 construct: purchased ProQinase GmbH
T2 sequence (P35968 20-1356): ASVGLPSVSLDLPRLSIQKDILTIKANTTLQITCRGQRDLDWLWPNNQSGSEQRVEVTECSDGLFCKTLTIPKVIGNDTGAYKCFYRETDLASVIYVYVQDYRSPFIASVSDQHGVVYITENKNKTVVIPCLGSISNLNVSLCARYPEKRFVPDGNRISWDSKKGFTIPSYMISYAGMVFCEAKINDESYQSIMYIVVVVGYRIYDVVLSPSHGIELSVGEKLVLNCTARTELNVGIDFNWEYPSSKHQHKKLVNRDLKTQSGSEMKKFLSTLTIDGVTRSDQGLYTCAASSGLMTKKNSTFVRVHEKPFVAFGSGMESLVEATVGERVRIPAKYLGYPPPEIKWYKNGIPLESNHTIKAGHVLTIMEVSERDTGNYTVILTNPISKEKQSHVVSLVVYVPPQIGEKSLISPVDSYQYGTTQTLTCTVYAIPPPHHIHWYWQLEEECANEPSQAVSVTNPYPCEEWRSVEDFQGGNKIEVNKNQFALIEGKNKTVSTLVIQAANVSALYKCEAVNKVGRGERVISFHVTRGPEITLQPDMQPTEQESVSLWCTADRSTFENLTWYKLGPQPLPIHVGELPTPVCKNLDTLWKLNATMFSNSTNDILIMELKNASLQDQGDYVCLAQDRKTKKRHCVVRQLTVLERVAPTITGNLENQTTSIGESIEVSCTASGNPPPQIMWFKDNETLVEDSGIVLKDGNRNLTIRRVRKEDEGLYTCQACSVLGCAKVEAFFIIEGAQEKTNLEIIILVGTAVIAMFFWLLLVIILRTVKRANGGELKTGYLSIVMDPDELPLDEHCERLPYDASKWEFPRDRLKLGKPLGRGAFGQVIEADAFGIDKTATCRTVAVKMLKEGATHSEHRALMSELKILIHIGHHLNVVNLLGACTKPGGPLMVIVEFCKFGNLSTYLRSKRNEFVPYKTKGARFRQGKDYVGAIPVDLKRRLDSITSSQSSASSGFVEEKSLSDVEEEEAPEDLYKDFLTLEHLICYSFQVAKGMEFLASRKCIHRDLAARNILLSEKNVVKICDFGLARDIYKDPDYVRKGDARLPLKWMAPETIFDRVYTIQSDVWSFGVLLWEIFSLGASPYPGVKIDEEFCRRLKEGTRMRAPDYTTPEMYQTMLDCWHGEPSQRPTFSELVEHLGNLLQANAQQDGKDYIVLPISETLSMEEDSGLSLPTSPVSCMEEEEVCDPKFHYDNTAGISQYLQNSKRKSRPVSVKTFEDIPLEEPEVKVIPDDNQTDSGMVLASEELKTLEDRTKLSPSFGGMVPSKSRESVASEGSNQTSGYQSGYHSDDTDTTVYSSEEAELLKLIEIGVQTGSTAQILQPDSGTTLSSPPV
Nature of the assay: Radioactive protein kinase assay (33PanQinase Activity Assay), VEGFR2. Particulars: ATP 1.0 μM (Km), substrate Poly(Glu, Tyr) 4:1, 30° C., 60 minutes; read-out: Biochemical IC50 (nM) VEGFR2. The procedure: as §1, §2, §3, §4, §5, §6, §7, §8, §9

On to `COc1cc2c(Oc3ccc(NC(=O)C4(C(=O)Nc5ccc(F)cc5)CC4)cc3F)ccnc2cc1OCCCCCC(=O)O` [Example 9, 6-[[4-[2-fluoro-4-[[1-[(4-fluorophenyl)carbamoyl]cyclopropanecarbonyl]amino]phenoxy]-6-methoxy-7-quinolyl]oxy]caproic acid], for which the half-inhibitory concentration (IC50) at AXL is 10.2 nM; on VEGFR2, 16 nM.

`CCOc1cc2c(Oc3ccc(NC(=O)C4(C(=O)Nc5ccc(F)cc5)CC4)cc3F)ccnc2cc1OCC(=O)O` [Example 18, Potassium 2-[[4-[2-fluoro-4-[[1-[(4-fluorophenyl)carbamoyl]cyclopropanecarbonyl]amino]phenoxy]-6-ethoxy-7-quinolyl]oxy]acetate]: the IC50 was 10.7 nM on AXL and 9.86 nM at VEGFR2.

As for `COc1cc2c(Oc3ccc(NC(=O)C4(C(=O)Nc5ccc(F)cc5)CC4)cc3F)ccnc2cc1OCC(=O)O` [Example 1, 2-[[4-[2-fluoro-4-[[1-[(4-fluorophenyl)carbamoyl]cyclopropanecarbonyl]amino]phenoxy]-6-methoxy-7-quinolyl]oxy]acetic acid], the 50% inhibitory concentration (IC50) at AXL was 55.3 nM; at VEGFR2, 24.5 nM.

For the compound `COc1cc2c(Oc3ccc(NC(=O)C4(C(=O)Nc5ccc(F)cc5)CC4)cc3F)ccnc2cc1OCCCCCC(=O)O` [Example 10, Sodium 6-[[4-[2-fluoro-4-[[1-[(4-fluorophenyl)carbamoyl]cyclopropanecarbonyl]amino]phenoxy]-6-methoxy-7-quinolyl]oxy]caproate], the concentration for half-maximal inhibition (IC50) at AXL was determined as 11.9 nM; on VEGFR2 it was 13.9 nM.

For `COc1cc2c(Oc3ccc(NC(=O)C4(C(=O)Nc5ccc(F)cc5)CC4)cc3F)ccnc2cc1OCCCCC(=O)O` [Example 8, Triethylammonium 5-[[4-[2-fluoro-4-[[1-[(4-fluorophenyl)carbamoyl]cyclopropanecarbonyl]amino]phenoxy]-6-methoxy-7-quinolyl]oxy]valerate], the IC50 came to 6.08 nM at AXL and 8.66 nM at VEGFR2.

As to `COc1cc2c(Oc3ccc(NC(=O)C4(C(=O)Nc5ccc(F)cc5)CC4)cc3F)ccnc2cc1OCCCCCC(=O)O` [Example 13, 1,3-dihydroxy-2-(hydroxymethyl)propan-2-ammonium 6-[[4-[2-fluoro-4-[[1-[(4-fluorophenyl)carbamoyl]cyclopropanecarbonyl]amino]phenoxy]-6-methoxy-7-quinolyl]oxy]caproate], the concentration for half-maximal inhibition (IC50) at AXL amounted to 8.63 nM; at VEGFR2, 12.6 nM.

As to `COc1cc2c(Oc3ccc(NC(=O)C4(C(=O)Nc5ccc(F)cc5)CC4)cc3F)ccnc2cc1OCCCCCCC(=O)O` [Example 14, 7-[[4-[2-fluoro-4-[[1-[(4-fluorophenyl)carbamoyl]cyclopropanecarbonyl]amino]phenoxy]-6-methoxy-7-quinolyl]oxy]heptanoic acid], the values for the IC50 at AXL and at VEGFR2 were 13.7 nM and 13.6 nM, respectively.

As for `COc1cc2c(Oc3ccc(NC(=O)C4(C(=O)Nc5ccc(F)cc5)CC4)cc3F)ccnc2cc1OCCCC(=O)O` [Example 3, 4-[[4-[2-fluoro-4-[[1-[(4-fluorophenyl)carbamoyl]cyclopropanecarbonyl]amino]phenoxy]-6-methoxy-7-quinolyl]oxy]butyric acid], the 50% inhibitory concentration (IC50) on AXL is 9.86 nM; on VEGFR2 it was 6.56 nM.

`COc1cc2c(Oc3ccc(NC(=O)C4(C(=O)Nc5ccc(F)cc5)CC4)cc3F)ccnc2cc1OCCCCCC(=O)O` [Example 11, Potassium 6-[[4-[2-fluoro-4-[[1-[(4-fluorophenyl)carbamoyl]cyclopropanecarbonyl]amino]phenoxy]-6-methoxy-7-quinolyl]oxy]caproate]: the figures for the half-maximal inhibitory concentration (IC50) on AXL and at VEGFR2 were 14.9 nM and 13.6 nM, respectively.

On to `COc1cc2c(Oc3ccc(NC(=O)C4(C(=O)Nc5ccc(F)cc5)CC4)cc3F)ccnc2cc1OCCCC(=O)O` [Example 4, Sodium 4-[[4-[2-fluoro-4-[[1-[(4-fluorophenyl)carbamoyl]cyclopropanecarbonyl]amino]phenoxy]-6-methoxy-7-quinolyl]oxy]butyrate], for which the IC50 on AXL stood at 9.05 nM; at VEGFR2 it was 8.03 nM.

In the case of `COc1cc2c(Oc3ccc(NC(=O)C4(C(=O)Nc5ccc(F)cc5)CC4)cc3F)ccnc2cc1OCCCCCC(=O)O` [Example 12, Calcium 6-[[4-[2-fluoro-4-[[1-[(4-fluorophenyl)carbamoyl]cyclopropanecarbonyl]amino]phenoxy]-6-methoxy-7-quinolyl]oxy]caproate (1:1)], the 50% inhibitory concentration (IC50) on AXL was determined as 10.7 nM; on VEGFR2 it was 10.4 nM.

Regarding `COc1cc2c(Oc3ccc(NC(=O)C4(C(=O)Nc5ccc(F)cc5)CC4)cc3F)ccnc2cc1OCCCCC(=O)O` [Example 6, 5-[[4-[2-fluoro-4-[[1-[(4-fluorophenyl)carbamoyl]cyclopropanecarbonyl]amino]phenoxy]-6-methoxy-7-quinolyl]oxy]valeric acid], the IC50 on AXL came out at 7.49 nM; at VEGFR2 it was 6.6 nM.

In the case of `COc1cc2c(Oc3ccc(NC(=O)C4(C(=O)Nc5cccc(Cl)c5)CC4)cc3F)ccnc2cc1OCCCCCCC(=O)O` [Example 16, Calcium 7-[[4-[2-fluoro-4-[[1-[(3-chlorophenyl)carbamoyl]cyclopropanecarbonyl]amino]phenoxy]-6-methoxy-7-quinolyl]oxy]heptanoate], the half-inhibitory concentration (IC50) worked out at 19.8 nM on AXL and 18.9 nM at VEGFR2.

Broadly, the IC50 is the concentration that gives 50% inhibition.
